This is an account of results in ChEMBL document CHEMBL6114990, “Design, synthesis, and biological evaluation of quinazolinone-dihydropyrimidinone as a potential anti-diabetic agent via GLUT4 translocation stimulation” (Eur J Med Chem, 2025).

The structures appear in SMILES notation. Values after ≈ are worked out from the molar mass of the structure shown. Active and inactive are the calls of the source. No cut-off for these calls is given here.

Data set [1] concerns the target T1, Solute carrier family 2, facilitated glucose transporter member 4 (Rattus norvegicus) (UniProt P19357).
T1 sequence (whole entry): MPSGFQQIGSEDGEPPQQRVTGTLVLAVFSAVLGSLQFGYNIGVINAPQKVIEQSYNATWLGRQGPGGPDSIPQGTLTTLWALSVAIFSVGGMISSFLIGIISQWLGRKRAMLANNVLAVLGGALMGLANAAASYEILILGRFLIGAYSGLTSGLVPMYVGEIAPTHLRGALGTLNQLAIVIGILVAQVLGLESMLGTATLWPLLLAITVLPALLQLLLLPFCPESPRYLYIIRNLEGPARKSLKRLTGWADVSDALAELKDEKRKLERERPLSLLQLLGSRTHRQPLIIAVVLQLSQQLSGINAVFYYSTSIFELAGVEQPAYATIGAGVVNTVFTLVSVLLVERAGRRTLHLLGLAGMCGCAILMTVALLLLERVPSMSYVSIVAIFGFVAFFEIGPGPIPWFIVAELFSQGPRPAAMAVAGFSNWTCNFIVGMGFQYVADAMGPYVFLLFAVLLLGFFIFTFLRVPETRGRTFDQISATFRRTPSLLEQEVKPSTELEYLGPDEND
The experiment in a line: Induction of GLUT4 translocation in rat L6-GLUT4myc skeletal muscle cells assessed as translocation to cell surface by measuring fold stimulation at 10 uM measured after 16 hrs by antibody-coupled colorimetric assay. It is filed as cell-based. The following applies: filed as activator.

The subject of data set [2] is L6-GLUT4myc. The experiment in a line: Effect on IRS1 expression in rat L6-GLUT4myc cells at 10 uM incubated for 16 hrs by qRT-PCR analysis. It is filed as functional, cell-based. (In general: In qPCR the cycle at which signal appears reflects the starting amount.)
The nature of data set [3]: Thermodynamic solubility of compound in HCL buffer at pH 1.2 measured for 24 hrs by HPLC analysis. The format is physicochemical. The conditions noted are these: read-out: Therm_solubility.
Data set [4] is described as follows: Stability of compound in simulated gastric fluid at pH 1.2 assessed as parent compound remaining measured after 120 mins by LC-MS/MS analysis. The format is physicochemical. The following applies: read-out: Stability.
The nature of data set [5]: Thermodynamic solubility of compound in tris buffer at pH 7.4 measured for 24 hrs by HPLC analysis. The format is physicochemical. The conditions noted are these: read-out: Therm_solubility.
For data set [6], the target named is T1, Solute carrier family 2, facilitated glucose transporter member 4 (Rattus norvegicus). Put plainly: Induction of insulin-induced GLUT4 translocation in rat L6-GLUT4myc skeletal muscle cells assessed as translocation to cell surface at 10 uM measured after 16 hrs incubation (final 3 hrs under serum starved medium) followed by stimulated with 100 nM insulin for 20 mins in presence of wortmannin PI3 Kinase inhibitor by antibody-coupled colorimetric assay. The format is cell-based. The conditions noted are these: time 980.0 min.

The target is the same in data set [7]. The experiment in a line: Induction of insulin-induced GLUT4 translocation in rat L6-GLUT4myc skeletal muscle cells assessed as translocation to cell surface at 10 uM measured after 16 hrs incubation (final 3 hrs under serum starved medium) followed by stimulated with 100 nM insulin for 20 mins by antibody-coupled colorimetric assay. The format is cell-based. The following applies: filed as activator, time 980.0 min.

Data set [8] has as its target 5'-AMP-activated protein kinase catalytic subunit alpha-1 (Rattus norvegicus) (UniProt P54645). Put plainly: Activation of AMPKalpha in rat L6-GLUT4myc cells assessed as induction of AMPKalpha phosphorylation at Thr172 residue at 10 uM measured for 16 hrs by Western blot analysis. The conditions noted are these: filed as activator. It is filed as cell-based. (In general: Immunoblotting shows a protein as a band on a membrane.)

The nature of data set [9]: Stability of compound in simulated physiological fluid at pH 7.4 assessed as parent compound remaining measured after 120 mins by LC-MS/MS analysis. The format is physicochemical. The conditions noted are these: read-out: Stability.
Data set [10] has as its system L6-GLUT4myc. The experiment in a line: Induction of AKT phosphorylation at Ser 473 residue in rat L6-GLUT4myc skeletal muscle cells at 10 uM measured after 16 hrs by Western blot analysis. It is filed as cell-based.
The nature of data set [11]: Stability of compound in simulated intestinal fluid at pH 6.8 assessed as parent compound remaining measured after 120 mins by LC-MS/MS analysis. It is filed as physicochemical. The following applies: read-out: Stability.
The test system of data set [12] is Rattus norvegicus. The experiment in a line: Anti-hyperglycemic activity against STZ-induced diabetic Sprague-Dawley rat model assessed as reduction in blood glucose level at 100 mg/kg, po measured after 5 hrs relative to control. It is filed as functional. On the set-up: scale not given: the % may be the effect or the level left.
For data set [13], the system named is L6-GLUT4myc. The experiment in a line: Effect on GLUT4 expression in rat L6-GLUT4myc cells at 10 uM incubated for 16 hrs by qRT-PCR analysis. It is filed as functional, cell-based.
Data set [14] is described as follows: Metabolic stability in rat liver microsome assessed as intrinsic clearance measured upto 60 mins by HPLC analysis. It is filed as ADME. The conditions noted are these: microsomes, 1 h. A general note: Microsomes from liver hold many membrane-bound enzymes, among them those of drug oxidation.
The test system of data set [15] is L6-GLUT4myc. The experiment in a line: Effect on AKT2 expression in rat L6-GLUT4myc cells at 10 uM incubated for 16 hrs by qRT-PCR analysis. The format is functional, cell-based.
A short description of data set [16]: Thermodynamic solubility of compound in distilled water measured for 24 hrs by HPLC analysis. The following applies: read-out: Therm_solubility. It is filed as physicochemical.
For data set [17], the target named is T1, Solute carrier family 2, facilitated glucose transporter member 4 (Rattus norvegicus). The experiment in a line: Induction of GLUT4 translocation in rat L6-GLUT4myc skeletal muscle cells assessed as translocation to cell surface measured after 16 hrs by antibody-coupled colorimetric assay. The format is cell-based. The following applies: filed as activator, dose 5-25 µM.

Data set [18] in a line: Metabolic stability in rat liver microsome assessed as half life measured upto 60 mins by HPLC analysis. It is filed as ADME. The conditions noted are these: microsomes, 1 h.
Data set [19] has as its system Rattus norvegicus. Put plainly: Anti-hyperglycemic activity against STZ-induced diabetic Sprague-Dawley rat model assessed as reduction in blood glucose level at 300 mg/kg, po measured after 5 hrs relative to control. The format is functional. On the set-up: scale not given: the % may be the effect or the level left.
Data set [20] deals with T1, Solute carrier family 2, facilitated glucose transporter member 4 (Rattus norvegicus). The experiment in a line: Induction of GLUT4 translocation in rat L6-GLUT4myc skeletal muscle cells assessed as translocation to cell surface by measuring fold stimulation at 500 uM measured after 16 hrs by antibody-coupled colorimetric assay. It is filed as cell-based. The conditions noted are these: filed as activator.

5'-AMP-activated protein kinase catalytic subunit alpha-1 (Rattus norvegicus), sequence (P54645 whole entry): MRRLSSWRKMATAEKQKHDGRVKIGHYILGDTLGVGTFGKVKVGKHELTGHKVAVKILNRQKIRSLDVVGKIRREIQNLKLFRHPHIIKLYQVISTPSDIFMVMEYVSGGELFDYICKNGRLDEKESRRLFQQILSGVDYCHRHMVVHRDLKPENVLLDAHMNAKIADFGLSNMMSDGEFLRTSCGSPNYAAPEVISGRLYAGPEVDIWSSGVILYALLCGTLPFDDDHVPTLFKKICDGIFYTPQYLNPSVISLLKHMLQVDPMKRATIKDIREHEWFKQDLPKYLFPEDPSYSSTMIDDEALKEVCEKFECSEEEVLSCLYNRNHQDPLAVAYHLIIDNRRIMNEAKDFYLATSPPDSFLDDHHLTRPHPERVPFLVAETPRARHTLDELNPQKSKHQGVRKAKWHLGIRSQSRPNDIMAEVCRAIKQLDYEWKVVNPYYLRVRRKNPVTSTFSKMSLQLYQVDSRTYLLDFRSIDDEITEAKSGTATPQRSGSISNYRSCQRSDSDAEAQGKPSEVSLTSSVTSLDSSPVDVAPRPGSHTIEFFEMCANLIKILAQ

Take `CC1=C(C(=O)Nc2cccc(-c3nc4ccccc4c(=O)n3C)c2)C(c2ccc(F)cc2)NC(=O)N1` (stereo not given): in data set [1], the fold change (FC) came to 1.13. The same measure, in the same setting: to `CCn1c(-c2ccc(NC(=O)C3=C(C)NC(=O)NC3c3scnc3C)cc2)nc2ccccc2c1=O` (stereo not given) belongs 1.31; to `CC1=C(C(=O)Nc2ccc(-c3nc4ccccc4c(=O)n3C)cc2)C(CC(C)C)NC(=O)N1` (stereo not given), 1.14; to `COc1ccc(C2NC(=O)NC(C)=C2C(=O)Nc2ccc(-c3nc4ccccc4c(=O)n3C)cc2)cc1OC` (stereo not given), 1.01. For `COc1ccc(C2NC(=O)NC(C)=C2C(=O)Nc2ccc(-c3nc4ccccc4c(=O)n3C)cc2)cc1` (stereo not given), the fold change (FC) in data set [1] came out at 1.28. Take `CC1=C(C(=O)Nc2ccc(-c3nc4ccccc4c(=O)n3C)cc2)C(c2ccc(F)cc2)NC(=O)N1` (stereo not given): in data set [1], the fold change (FC) was determined as 1.27. As to `CC1=C(C(=O)Nc2ccc(-c3nc4ccccc4c(=O)n3C)cc2)C(c2ccc(Cl)cc2Cl)NC(=O)N1` (stereo not given), the Activity result was “No effect” with L6-GLUT4myc [2]; “No effect” in the data set on L6-GLUT4myc [10]; approximately 39.5% in the data set with Rattus norvegicus [12]; “No effect” in the data set on L6-GLUT4myc [13]; “No effect” in the data set with L6-GLUT4myc [15]; “Dose-dependent-effect” in [17]. Further, the solubility thermodynamic at 24 h in [3] amounted to 23.8 µg/mL (≈ 44.6 µM); in data set [5] it was 0.25 µg/mL (≈ 0.468 µM); in data set [16], 0.36 µg/mL (≈ 0.674 µM). Further, the remaining at 2 h in [4], in data set [9] and in [11] was not below 60% in each case. Further, the fold change (FC) in data set [1] came out at 2.52. The result in data set [6] was inactive. In addition, the outcome in [7] and in data set [8] was Active. The CLH in [14] is 1.336 µL/min/mg. The t1/2 in data set [18] is given as 3.16 min. For the molecule `CCn1c(-c2ccc(NC(=O)C3=C(C)NC(=O)NC3c3ccc(Cl)cc3)cc2)nc2ccccc2c1=O` (stereo not given), the fold change (FC) in [1] came to 1.7. Still for that read-out and setting: to `CCn1c(-c2ccc(NC(=O)C3=C(C)NC(=O)NC3c3ccsc3)cc2)nc2ccccc2c1=O` (stereo not given) belongs 1.29; to `CCn1c(-c2ccc(NC(=O)C3=C(C)NC(=O)NC3c3ccccc3)cc2)nc2ccccc2c1=O` (stereo not given), 1.32. Turning to `CC1=C(C(=O)Nc2ccc(-c3nc4ccccc4c(=O)n3C)cc2)C(c2cccs2)NC(=O)N1` (stereo not given), the fold change (FC) in [1] came to 1.27. Take `CC(=O)CC(=O)Nc1ccc(-c2nc3ccccc3c(=O)n2C)cc1`: in data set [1], the fold change (FC) worked out at 1.24.

As for `CC1=C(C(=O)Nc2ccc(-c3nc4ccccc4c(=O)n3C)cc2)C(c2ccc(C#N)cc2)NC(=O)N1` (stereo not given), the fold change (FC) in data set [1] came out at 1.1. The same measure, in the same setting: with `CC1=C(C(=O)Nc2ccc(-c3nc4ccccc4c(=O)n3C)cc2)C(c2ccco2)NC(=O)N1` (stereo not given) the figure was 1.11; with `CC1=C(C(=O)Nc2cccc(-c3nc4ccccc4c(=O)n3C)c2)C(c2ccc([N+](=O)[O-])cc2)NC(=O)N1` (stereo not given), 1. For `CC1=C(C(=O)Nc2ccc(-c3nc4ccccc4c(=O)n3C)cc2)C(c2cccc(Cl)c2)NC(=O)N1` (stereo not given), in [1], the fold change (FC) worked out at 1.92. For the same molecule, in [17], the Activity result was “Dose-dependent-effect”. Regarding `CC1=C(C(=O)Nc2ccc(-c3nc4ccccc4c(=O)n3C)cc2)C(c2ccccc2Cl)NC(=O)N1` (stereo not given), the fold change (FC) in data set [1] was 1.51. Turning to `CC1=C(C(=O)Nc2cccc(-c3nc4ccccc4c(=O)n3C)c2)C(c2ccco2)NC(=O)N1` (stereo not given), the fold change (FC) in [1] worked out at 1.1. As for `CCn1c(-c2ccc(NC(=O)C3=C(C)NC(=O)NC3c3ccco3)cc2)nc2ccccc2c1=O` (stereo not given), the fold change (FC) in data set [1] came out at 1.32. The same measure, in the same setting: with `CC1=C(C(=O)Nc2ccc(-c3nc4cccc(Cl)c4c(=O)n3C)cc2)C(c2ccc(Cl)cc2Cl)NC(=O)N1` (stereo not given) the figure was 1.15. For `CC1=C(C(=O)Nc2ccc(-c3nc4ccccc4c(=O)n3C)cc2)C(c2scnc2C)NC(=O)N1` (stereo not given), in data set [1], the fold change (FC) turned out to be 1.05.

For the molecule `CC1=C(C(=O)Nc2ccc(-c3nc4ccccc4c(=O)n3C)cc2)C(c2ccc(C(F)(F)F)cc2)NC(=O)N1` (stereo not given), in data set [1], the fold change (FC) is 1.54. Same read-out and setting: with `CC1=C(C(=O)Nc2cccc(-c3nc4ccccc4c(=O)n3C)c2)C(c2ccc(Cl)cc2Cl)NC(=O)N1` (stereo not given) the figure was 1.14; with `CC1=C(C(=O)Nc2ccc(-c3nc4ccccc4c(=O)n3C)cc2)C(c2ccc([N+](=O)[O-])cc2)NC(=O)N1` (stereo not given), 1.21. On the same count and under the same terms, with `CC1=C(C(=O)Nc2cccc(-c3nc4ccccc4c(=O)n3C)c2)C(c2cccs2)NC(=O)N1` (stereo not given) the figure was 1.16.

Consider `CC1=C(C(=O)Nc2ccc(-c3nc4ccccc4c(=O)n3C)cc2)C(c2ccc(N(C)C)cc2)NC(=O)N1` (stereo not given), for which the fold change (FC) in [1] is 1.08. For `CC1=C(C(=O)Nc2ccc(-c3nc4ccccc4c(=O)n3C)cc2)C(c2ccc(Cl)c(Cl)c2)NC(=O)N1` (stereo not given), in data set [1], the fold change (FC) amounted to 1.63. The same measure, in the same setting: to `CC1=C(C(=O)Nc2cccc(-c3nc4ccccc4c(=O)n3C)c2)C(c2ccc(Cl)cc2)NC(=O)N1` (stereo not given) belongs 1.17. Regarding `CC1=C(C(=O)Nc2ccc(-c3nc4ccccc4c(=O)n3C)cc2)C(c2ccc(Cl)cc2)NC(=O)N1` (stereo not given), the fold change (FC) in [1] amounted to 1.7. As for `COc1ccc(C2NC(=O)NC(C)=C2C(=O)Nc2cccc(-c3nc4ccccc4c(=O)n3C)c2)cc1OC` (stereo not given), the fold change (FC) in data set [1] was determined as 1.02. In the case of `CN(C)C(=N)NC(=N)N` [METFORMIN], the Activity with Rattus norvegicus [19] was 64.7%. The fold change (FC) in data set [20] was 1.65.
